PubChem BioAssay (NCI)
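How tested: cells in 96-well plates exposed to compound for 48 hours at five concentrations. TGI: total growth inhibition.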

Test system: TK-10 renal
Assay: DTP human tumour cell line panel, 48 h

Row | SMILES | TGI
1 | COC(=O)C1=CS/C(=C2\S[C@@H]3[C@H](S2)[C@H]2C=C[C@@H]3C2)S1 | > 100 µM
2 | CC(CC[C@@]1(C)C(=O)CCC2O[C@]21C)[C@H]1C[C@@H](c2ccoc2)OC1=O (stereo partly drawn) | 94.4 µM
3 | CN(C(=O)Cc1cccc(N=C=S)c1)[C@H]1CCCC[C@@H]1N1CCCC1 | 24.3 µM
4 | O=C(NC(Cc1ccccc1)(Cc1ccc(O)cn1)C(=O)O)c1ccccc1 (stereo not drawn) | > 100 µM
5 | O=C1c2ccsc2C(=O)c2sc(CO)cc21 | 10.1 µM
6 | N#C/C(=C/NC(N)=S)C(N)=O | > 100 µM
7 | O=C(c1cccs1)N1CCc2ccccc2C1 | > 100 µM
8 | O=c1c2ccccc2nc(Cc2nc(-c3ccc(Cl)cc3)cs2)n1-c1ccc(Cl)cc1 | > 100 µM
9 | CCN(CC)CCSc1c2cc(OC)ccc2nc2ccc(OC)cc12 | 22.1 µM
10 | CCOC(=O)C1C(=O)CC1(C)C (stereo not drawn) | > 10 µM

Test system: UACC-257 melanoma
Assay: DTP human tumour cell line panel, 48 h

Row | SMILES | TGI
11 | C(/C=C/Nc1ccc(Oc2ccccc2)cc1)=Nc1ccc(Oc2ccccc2)cc1 | 32 µM
12 | Nc1nc(-[n+]2ccc(-c3ccncc3)cc2)nc(Cl)c1Cl | 40.8 µM
13 | C[C@@H](c1ccccc1)n1c(N)c(C#N)c2ccc([N+](=O)[O-])cc2c1=O | 40.3 µM
14 | CC1(C)OC(=O)N(c2ccccc2)C12C=Cc1cc([N+](=O)[O-])ccc1O2 (stereo not drawn) | 77 µM
15 | O=C1CC(c2cccc([N+](=O)[O-])c2)C2(C(=O)NC(=O)NC2=O)C(c2cccc([N+](=O)[O-])c2)C1 (stereo not drawn) | > 100 µM
16 | Nc1nc(-c2ccccc2)cc(-c2ccc(OCc3ccccc3)cc2O)n1 | > 100 µM
17 | CCCc1c(O)nc(Nc2nc3ccccc3[nH]2)[nH]c1=O | > 100 µM
18 | COC1=C(OC)C(=O)C(Cc2c(C)nc3sccn23)=C(C)C1=O | 20.7 µM
19 | CCOC(=O)Cc1nc2cc(F)c(F)cc2[nH]c1=O | > 100 µM
20 | CCOc1ncn(-c2ccc(NC(=S)NC3OC(CO)C(O)C(O)C3O)cc2)n1 (stereo not drawn) | > 100 µM
21 | Cn1c([C@H](C#N)c2ncccc2[N+](=O)[O-])nc2ccccc21 | > 100 µM
22 | COCc1nc2c(OC)c(-c3nc4nc(N5CCN(C)CC5)ccc4[nH]3)cc(OC)c2n1C | 36.4 µM
23 | O=C(c1ccco1)N(C(=S)OCCOc1ccccc1)c1ccccc1 | 37.4 µM
24 | COC(=O)C1=CS/C(=C2\S[C@@H]3[C@H](S2)[C@H]2C=C[C@@H]3C2)S1 | > 100 µM
25 | CC(=O)Oc1ccc2cc(-c3ccccc3OC(C)=O)c(=O)oc2c1 | > 100 µM
26 | CC(CC[C@@]1(C)C(=O)CCC2O[C@]21C)[C@H]1C[C@@H](c2ccoc2)OC1=O (stereo partly drawn) | > 100 µM
27 | CN(C(=O)Cc1cccc(N=C=S)c1)[C@H]1CCCC[C@@H]1N1CCCC1 | 28.9 µM
28 | O=C(NC(Cc1ccccc1)(Cc1ccc(O)cn1)C(=O)O)c1ccccc1 (stereo not drawn) | > 100 µM
29 | O=C1c2ccsc2C(=O)c2sc(CO)cc21 | 0.0993 µM
30 | N#C/C(=C/NC(N)=S)C(N)=O | > 100 µM
31 | O=C(c1cccs1)N1CCc2ccccc2C1 | > 100 µM
32 | O=c1c2ccccc2nc(Cc2nc(-c3ccc(Cl)cc3)cs2)n1-c1ccc(Cl)cc1 | > 100 µM
33 | CCN(CC)CCSc1c2cc(OC)ccc2nc2ccc(OC)cc12 | 16.4 µM
34 | CCOC(=O)c1ccc(NCc2ccc3oc(=O)c(-c4ccccc4)nc3c2)cc1 | 42 µM
35 | CCOC(=O)C1C(=O)CC1(C)C (stereo not drawn) | > 10 µM

Test system: UACC-62 melanoma
Assay: DTP human tumour cell line panel, 48 h

Row | SMILES | TGI
36 | Nc1nc(-[n+]2ccc(-c3ccncc3)cc2)nc(Cl)c1Cl | > 100 µM
37 | C[C@@H](c1ccccc1)n1c(N)c(C#N)c2ccc([N+](=O)[O-])cc2c1=O | 30.4 µM
38 | CC1(C)OC(=O)N(c2ccccc2)C12C=Cc1cc([N+](=O)[O-])ccc1O2 (stereo not drawn) | > 100 µM
39 | O=C1CC(c2cccc([N+](=O)[O-])c2)C2(C(=O)NC(=O)NC2=O)C(c2cccc([N+](=O)[O-])c2)C1 (stereo not drawn) | > 100 µM
40 | Nc1nc(-c2ccccc2)cc(-c2ccc(OCc3ccccc3)cc2O)n1 | > 100 µM
41 | CCCc1c(O)nc(Nc2nc3ccccc3[nH]2)[nH]c1=O | > 100 µM
42 | COC1=C(OC)C(=O)C(Cc2c(C)nc3sccn23)=C(C)C1=O | 23.5 µM
43 | CCOC(=O)Cc1nc2cc(F)c(F)cc2[nH]c1=O | > 100 µM
44 | CCOc1ncn(-c2ccc(NC(=S)NC3OC(CO)C(O)C(O)C3O)cc2)n1 (stereo not drawn) | > 100 µM
45 | Cn1c([C@H](C#N)c2ncccc2[N+](=O)[O-])nc2ccccc21 | > 100 µM
46 | COCc1nc2c(OC)c(-c3nc4nc(N5CCN(C)CC5)ccc4[nH]3)cc(OC)c2n1C | 41.1 µM
47 | O=C(c1ccco1)N(C(=S)OCCOc1ccccc1)c1ccccc1 | 32.7 µM
48 | N#C[C@@H](c1ccccn1)c1ncccc1[N+](=O)[O-] | > 100 µM
49 | COC(=O)C1=CS/C(=C2\S[C@@H]3[C@H](S2)[C@H]2C=C[C@@H]3C2)S1 | > 100 µM
50 | CC(CC[C@@]1(C)C(=O)CCC2O[C@]21C)[C@H]1C[C@@H](c2ccoc2)OC1=O (stereo partly drawn) | > 100 µM
51 | CN(C(=O)Cc1cccc(N=C=S)c1)[C@H]1CCCC[C@@H]1N1CCCC1 | 29.4 µM
52 | O=C(NC(Cc1ccccc1)(Cc1ccc(O)cn1)C(=O)O)c1ccccc1 (stereo not drawn) | > 100 µM
53 | O=C1c2ccsc2C(=O)c2sc(CO)cc21 | 0.122 µM
54 | O=C(c1cccs1)N1CCc2ccccc2C1 | > 100 µM
55 | O=c1c2ccccc2nc(Cc2nc(-c3ccc(Cl)cc3)cs2)n1-c1ccc(Cl)cc1 | > 100 µM
56 | CCN(CC)CCSc1c2cc(OC)ccc2nc2ccc(OC)cc12 | 33.5 µM
57 | CCOC(=O)c1ccc(NCc2ccc3oc(=O)c(-c4ccccc4)nc3c2)cc1 | > 100 µM
58 | CCOC(=O)C1C(=O)CC1(C)C (stereo not drawn) | > 10 µM
